Our source for the log p and chromatographic logP values is patent US8569509B2, “Thiazole-4-carboxylic acid esters and thioesters as plant protection agents” (priority 2008, dated 2013).

A short description of the data set: log P determination (HPLC, calibration with unbranched alkan-2-ones). It is filed as physicochemical. On the procedure: The calibration is carried out using unbranched alkan-2-ones (having 3 to 16 carbon atoms) with known log P values (determination of the log P values by the retention times using linear interpolation between two successive alkanones). The lambda-maX values were determined in the maxima of the chromatographic signals using the UV spectra from 200 nm to 400 nm.

Where [1] appears, read: * LC-MS determination in the acidic range at pH 2.7, 0.1% aqueous formic acid and acetonitrile, linear gradient 10% to 95% acetonitrile.
Where [2] appears, read: pH 2.7, read-out: log P (pH 2.7).
[3] abbreviates: reversed-phase C18 HPLC column, * LC-MS determination in the acidic range at pH 2.7, mobile phases 0.1% aqueous formic acid and acetonitrile (0.1% formic acid), linear gradient 10% to 95% acetonitrile, reversed-phase C 18 HPLC, read-out: log p.
Setting [4] is: * LC-MS determination in the acidic range at pH 2.7, mobile phases 0.1% aqueous formic acid and acetonitrile (0.1% formic acid), linear gradient 10% to 95% acetonitrile, reversed-phase C 18 HPLC.

Structures are written as SMILES. Where two headings read alike, the source gives them in different places.

Consider `Cc1cc(C)n(C(C)(C)C(=O)N2CCC(c3nc(C(=O)OCC4CC4)cs3)CC2)n1` [compound 372], for which the log p under setting [1] was 3.86*.
Same read-out and setting: to `Cc1cc(C)n(C(C)(C)C(=O)N2CCC(c3nc(C(=O)OC4CCc5ccccc54)cs3)CC2)n1` (stereo not shown) [compound 376] belongs 3.68*; to `Cc1cc(C)n(C(C)(C)C(=O)N2CCC(c3nc(C(=O)Oc4cccc5ccccc45)cs3)CC2)n1` [compound 377], 3.82*; to `Cc1cc(C)n(C(C)(C)C(=O)N2CCC(c3nc(C(=O)Oc4ccc5ccccc5c4)cs3)CC2)n1` [compound 378], 3.73*.
Still for that read-out and setting: then `Cc1cc(C)n(C(C)(C)C(=O)N2CCC(c3nc(C(=O)OCc4ccccc4)cs3)CC2)n1` [compound 379], with 3.19*.
Take `Cc1cc(C)n(C(C)(C)C(=O)N2CCC(c3nc(C(=O)OCCc4ccc(F)cc4)cs3)CC2)n1` [compound 405]: under setting [1], the log p is given as 3.42*.
Regarding `Cc1cc(C)n(C(C)(C)C(=O)N2CCC(c3nc(C(=O)Oc4ccccc4)cs3)CC2)n1` [compound 412], under setting [1], the log p is recorded as 3.06*.
Same read-out and setting: then `Cc1cc(C)n(C(C)(C)C(=O)N2CCC(c3nc(C(=O)Oc4ccc(F)cc4)cs3)CC2)n1` [compound 413], with 3.21*.
On the same count and under the same terms, then `Cc1cc(C)n(C(C)(C)C(=O)N2CCC(c3nc(C(=O)OCc4ccncc4)cs3)CC2)n1` [compound 442], with 1.33*.
In the case of `Cc1cc(C)n(C(C)(C)C(=O)N2CCC(c3nc(C(=O)OCc4cccs4)cs3)CC2)n1` [compound 443], the log p under setting [1] is on record as 3.06*.
On to `CC(C)(C)CCOC(=O)c1csc(C2CCN(C(=O)Cn3ccc(C(F)(F)F)n3)CC2)n1` [compound 767, 3,3-Dimethylbutyl 2-(1-{[3-(trifluoromethyl)-1H-pyrazol-1-yl]acetyl}piperidin-4-yl)-1,3-thiazole-4-carboxylate], for which the chromatographic logP under setting [2] turned out to be 3.82; the chromatographic logP (reversed-phase (C18) HPLC column, * LC-MS determination in the acidic range at pH 2.7, 0.1% aqueous formic acid and acetonitrile, linear gradient 10% to 95% acetonitrile, read-out: log p) was 3.82.
With `O=C(Oc1cccc2ccccc12)c1csc(C2CCN(C(=O)Cn3nc(C(F)(F)F)cc3C(F)(F)F)CC2)n1` [compound 771, 1-Naphthyl 2-(1-{[3,5-bis(trifluoromethyl)-1H-pyrazol-1-yl]acetyl}piperidin-4-yl)-1,3-thiazole-4-carboxylate], the chromatographic logP under setting [2] worked out at 4.35 and the chromatographic logP under setting [3] turned out to be 4.35.
Regarding `O=C(OC1CCCCC1)c1csc(C2CCN(C(=O)Cn3nc(C(F)(F)F)cc3C(F)(F)F)CC2)n1` [compound 772, Cyclohexyl 2-(1-{[3,5-bis(trifluoromethyl)-1H-pyrazol-1-yl]acetyl}piperidin-4-yl)-1,3-thiazole-4-carboxylate], the chromatographic logP came to 4.39 under setting [2] and 4.39 under setting [3].
In the case of `CC(C(=O)N1CCC(c2nc(C(=O)Oc3cccc4ccccc34)cs2)CC1)n1ccc(C(F)(F)F)n1` (stereo not shown) [compound 773], the log p under setting [4] is given as 3.87*.
Still for that read-out and setting: to `CC(C(=O)N1CCC(c2nc(C(=O)OC3CCCCC3)cs2)CC1)n1ccc(C(F)(F)F)n1` (stereo not shown) [compound 774] belongs 3.88*.
Turning to `Cc1cc(C(F)(F)F)nn1CC(=O)N1CCC(c2nc(C(=O)OCc3ccc(Cl)c(Cl)c3)cs2)CC1` [compound 775], under setting [4], the log p was 4.09*.
On the same count and under the same terms, then `Cc1cc(C(F)(F)F)nn1CC(=O)N1CCC(c2nc(C(=O)OCc3ccc(C(F)(F)F)cc3)cs2)CC1` [compound 776], with 3.86*; and `O=C(Oc1cccc2ccccc12)c1csc(C2CCN(C(=O)Cn3nc(C(F)(F)F)cc3-c3ccccc3)CC2)n1` [compound 777], with 4.50*.
The same measure, in the same setting: to `Cc1cc(C(F)(F)F)nn1CC(=O)N1CCC(c2nc(C(=O)OC/C=C/c3ccccc3)cs2)CC1` [compound 779] belongs 3.74*; to `Cc1cc(C(F)(F)F)nn1CC(=O)N1CCC(c2nc(C(=O)OCc3cccnc3)cs2)CC1` [compound 780], 1.74*; to `Cc1cc(C(F)(F)F)nn1CC(=O)N1CCC(c2nc(C(=O)Oc3ccc4cccnc4c3)cs2)CC1` [compound 781], 2.42*.
On the same count and under the same terms, to `Cc1cc(C(F)(F)F)nn1CC(=O)N1CCC(c2nc(C(=O)Oc3cccc4cccnc34)cs2)CC1` [compound 782] belongs 2.88*.
For `Cc1cc(C(F)(F)F)nn1CC(=O)N1CCC(c2nc(C(=O)OCc3cccc4ccccc34)cs2)CC1` [compound 783], the log p under setting [4] was 3.90*.
As for `Cc1cc(C(F)(F)F)nn1CC(=O)N1CCC(c2nc(C(=O)OCc3ccc4ccccc4c3)cs2)CC1` [compound 784], the log p under setting [4] was 3.92*.
Still for that read-out and setting: to `Cc1cc(C(F)(F)F)nn1CC(=O)N1CCC(c2nc(C(=O)OC(C)c3cccc4ccccc34)cs2)CC1` (stereo not shown) [compound 785] belongs 4.16*; to `Cc1cc(C(F)(F)F)nn1CC(=O)N1CCC(c2nc(C(=O)OC(C)c3ccc4ccccc4c3)cs2)CC1` (stereo not shown) [compound 786], 4.18*.
Same read-out and setting: then `Cc1cc(C(F)(F)F)nn1CC(=O)N1CCC(c2nc(C(=O)OCC#Cc3ccccc3)cs2)CC1` [compound 787], with 3.70*; and `Cc1cc(C(F)(F)F)nn1CC(=O)N1CCC(c2nc(C(=O)OC3CCCCCC3)cs2)CC1` [compound 788], with 4.09*; and `Cc1cc(C(F)(F)F)nn1CC(=O)N1CCC(c2nc(C(=O)Oc3cccc4c3CCCC4)cs2)CC1` [compound 790], with 4.21*.
Same read-out and setting: to `Cc1cc(C(F)(F)F)nn1CC(=O)N1CCC(c2nc(C(=O)OC3Cc4ccccc4C3)cs2)CC1` [compound 791] belongs 3.67*; to `Cc1cc(C(F)(F)F)nn1CC(=O)N1CCC(c2nc(C(=O)Oc3cccc4c3CCCC4)cs2)CC1` [compound 792], 4.30*.
For `Cc1cc(C(F)(F)F)nn1CC(=O)N1CCC(c2nc(C(=O)Oc3ccc4ncccc4c3)cs2)CC1` [compound 793], the log p under setting [4] is listed as 2.37*.
Same read-out and setting: then `Cc1cc(C(F)(F)F)nn1CC(=O)N1CCC(c2nc(C(=O)Oc3cccc4cnccc34)cs2)CC1` [compound 794], with 2.18*.
Still for that read-out and setting: then `Cc1cc(C(F)(F)F)nn1CC(=O)N1CCC(c2nc(C(=O)O[C@@H]3CCCc4ccccc43)cs2)CC1` [compound 795], with 4.06*; and `Cc1cc(C(F)F)n(CC(=O)N2CCC(c3nc(C(=O)OC4CCCCC4)cs3)CC2)n1` [compound 796], with 3.28*.
Still for that read-out and setting: then `Cc1cc(C)n(C(C)(C)C(=O)N2CCC(c3nc(C(=O)OC4CC(C)CCC4C(C)C)cs3)CC2)n1` (stereo not shown) [compound 797], with 5.51*; and `C#CC1(OC(=O)c2csc(C3CCN(C(=O)C(C)(C)n4nc(C)cc4C)CC3)n2)CCCC1` [compound 798], with 3.28*.
As to `Cc1cc(C)n(C(C)(C)C(=O)N2CCC(c3nc(C(=O)OC4CC5CCC4(C)C5(C)C)cs3)CC2)n1` (stereo not shown) [compound 800], under setting [4], the log p is listed as 5.08*.
The same measure, in the same setting: to `C=CC(CCC)OC(=O)c1csc(C2CCN(C(=O)C(C)(C)n3nc(C)cc3C)CC2)n1` (stereo not shown) [compound 801] belongs 3.78*.
Still for that read-out and setting: to `Cc1cc(C)n(C(C)(C)C(=O)N2CCC(c3nc(C(=O)OC4CC(C)CC(C(C)C)C4)cs3)CC2)n1` (stereo not shown) [compound 802] belongs 5.58*; to `Cc1cc(C)n(C(C)(C)C(=O)N2CCC(c3nc(C(=O)OCCN(C)C)cs3)CC2)n1` [compound 803], 1.03*; to `C#CC1(OC(=O)c2csc(C3CCN(C(=O)C(C)(C)n4nc(C)cc4C)CC3)n2)CCCCC1` [compound 804], 3.73*.
Take `CCCCC(CC)COC(=O)c1csc(C2CCN(C(=O)C(C)(C)n3nc(C)cc3C)CC2)n1` (stereo not shown) [compound 806]: the log p under setting [4] is 5.08*.
With `Cc1cc(C(F)(F)F)nn1CC(=O)N1CCC(c2nc(C(=O)Oc3cccc4ncccc34)cs2)CC1` [compound 807], the log p under setting [4] is on record as 2.59*.
Still for that read-out and setting: then `Cc1cc(C(F)(F)F)nn1CC(=O)N1CCC(c2nc(C(=O)OC(c3ccccc3)c3ccccc3)cs2)CC1` [compound 808], with 4.17*; and `Cc1cc(C(F)(F)F)nn1CC(=O)N1CCC(c2nc(C(=O)Oc3cccc4ocnc34)cs2)CC1` [compound 809], with 2.81*.
On to `O=C(OC1CCCCC1)c1csc(C2CCN(C(=O)Cn3nc(C(F)F)cc3C(F)F)CC2)n1` [compound 811, Cyclohexyl 2-(1-{[3,5-bis(difluoromethyl)-1H-pyrazol-1-yl]acetyl}piperidin-4-yl)-1,3-thiazole-4-carboxylate], for which the chromatographic logP came to 3.64 under setting [2] and 3.64 under setting [3].
As for `O=C(Oc1cccc2ccccc12)c1csc(C2CCN(C(=O)Cn3nc(C(F)F)cc3C(F)F)CC2)n1` [compound 813, 1-Naphthyl 2-(1-{[3,5-bis(difluoromethyl)-1H-pyrazol-1-yl]acetyl}piperidin-4-yl)-1,3-thiazole-4-carboxylate], the chromatographic logP is, setting by setting: under setting [2], 3.64; under setting [3], 3.64.
Take `COc1ccccc1OC(=O)c1csc(C2CCN(C(=O)Cn3nc(C(F)(F)F)cc3C)CC2)n1` [compound 814]: the log p under setting [4] is 3.17*.
Still for that read-out and setting: then `Cc1cc(C(F)(F)F)nn1CC(=O)N1CCC(c2nc(C(=O)OC(c3ccccc3)C3CC3)cs2)CC1` (stereo not shown) [compound 815], with 3.87*; and `COc1cccc(OC)c1OC(=O)c1csc(C2CCN(C(=O)Cn3nc(C(F)(F)F)cc3C)CC2)n1` [compound 816], with 3.12*; and `COc1ccccc1COC(=O)c1csc(C2CCN(C(=O)Cn3nc(C(F)(F)F)cc3C)CC2)n1` [compound 817], with 3.44*.
The same measure, in the same setting: then `Cc1cc(C(F)(F)F)nn1CC(=O)N1CCC(c2nc(C(=O)OCc3c(Cl)cc(Cl)cc3Cl)cs2)CC1` [compound 818], with 4.53*.
